Laboratory results: the NIST ThermoML archive (doi:10.1016/j.jct.2006.10.016)

Test: xn = mol fraction of the nth substance listed
Settings: 101 kPa, Liquid

CC(C)O [propan-2-ol] + C[S+](C)[O-]
x2 = 0
Settings | mass density [kg/m3] | viscosity [mPa·s]
303.15 K | 776.4 | 1.792
308.15 K | 772.6 | 1.553
313.15 K | 768.6 | 1.355
318.15 K | 763.9 | 1.182
323.15 K | 758.8 | 1.041

C[S+](C)[O-] [dimethyl sulfoxide] + CCCO
Settings | mass density, 303.15 K [kg/m3] | mass density, 308.15 K [kg/m3] | mass density, 313.15 K [kg/m3] | mass density, 318.15 K [kg/m3] | mass density, 323.15 K [kg/m3] | viscosity, 303.15 K [mPa·s] | viscosity, 308.15 K [mPa·s] | viscosity, 313.15 K [mPa·s] | viscosity, 318.15 K [mPa·s] | viscosity, 323.15 K [mPa·s]
x1 = 0.1003 | 824.3 | 820.3 | 816.5 | 812.7 | 808.9 | 1.598 | 1.436 | 1.257 | 1.142 | 1.034
x1 = 0.1995 | 853.1 | 848.6 | 844.8 | 840.8 | 836.8 | 1.41 | 1.278 | 1.163 | 1.066 | 0.9724
x1 = 0.2999 | 881.4 | 876.6 | 873.2 | 868.7 | 864.8 | 1.402 | 1.277 | 1.173 | 1.078 | 0.9878
x1 = 0.3994 | 910.1 | 905.3 | 901.7 | 897.1 | 892.9 | 1.393 | 1.273 | 1.17 | 1.084 | 0.9964
x1 = 0.5 | 938.7 | 933.4 | 929.7 | 924.3 | 919.7 | 1.425 | 1.31 | 1.207 | 1.11 | 1.017
x1 = 0.5995 | 968.1 | 962.5 | 958.8 | 953.2 | 948.6 | 1.492 | 1.357 | 1.246 | 1.148 | 1.07
x1 = 0.7002 | 998.2 | 992.2 | 988.8 | 982.3 | 977.6 | 1.532 | 1.4 | 1.29 | 1.201 | 1.1
x1 = 0.7998 | 1027.6 | 1021.6 | 1017.5 | 1011 | 1006.1 | 1.593 | 1.452 | 1.335 | 1.247 | 1.14
x1 = 0.9004 | 1059.4 | 1053 | 1050 | 1043 | 1037.6 | 1.728 | 1.629 | 1.493 | 1.361 | 1.219
x1 = 1 | 1090.7 | 1084.7 | 1082.3 | 1075.1 | 1070 | 1.832 | 1.67 | 1.537 | 1.408 | 1.289

CCO [ethanol] + C[S+](C)[O-]
x2 = 0
Settings | mass density [kg/m3] | viscosity [mPa·s]
303.15 K | 783.4 | 1.086
308.15 K | 779 | 0.9732
313.15 K | 774.6 | 0.8596
318.15 K | 769.8 | 0.8284
323.15 K | 766.1 | 0.7493

C[S+](C)[O-] [dimethyl sulfoxide] + CO
Settings | mass density, 303.15 K [kg/m3] | mass density, 308.15 K [kg/m3] | mass density, 313.15 K [kg/m3] | mass density, 318.15 K [kg/m3] | mass density, 323.15 K [kg/m3] | viscosity, 303.15 K [mPa·s] | viscosity, 308.15 K [mPa·s] | viscosity, 313.15 K [mPa·s] | viscosity, 318.15 K [mPa·s] | viscosity, 323.15 K [mPa·s]
x1 = 0.0998 | 837.8 | 834.7 | 829.9 | 825.2 | 820.4 | 0.5976 | 0.5587 | 0.5228 | 0.4918 | 0.4582
x1 = 0.2004 | 886 | 882.3 | 877.3 | 872.2 | 867.1 | 0.678 | 0.6322 | 0.591 | 0.5532 | 0.5163
x1 = 0.3007 | 925 | 921 | 916.3 | 910.8 | 905.7 | 0.7684 | 0.7147 | 0.6694 | 0.6281 | 0.5857
x1 = 0.3998 | 959.3 | 955 | 950.7 | 944.7 | 939.6 | 0.8719 | 0.8091 | 0.7576 | 0.7073 | 0.6605
x1 = 0.4996 | 988.4 | 983.6 | 979.6 | 973.3 | 968.4 | 0.9887 | 0.9164 | 0.8549 | 0.7972 | 0.7426
x1 = 0.6008 | 1013.9 | 1009 | 1005.6 | 999.4 | 994.4 | 1.123 | 1.037 | 0.9676 | 0.9008 | 0.8357
x1 = 0.699 | 1035.3 | 1030.1 | 1026.9 | 1020.9 | 1016 | 1.272 | 1.172 | 1.09 | 1.012 | 0.9359
x1 = 0.8011 | 1055.5 | 1050.3 | 1047.7 | 1040.9 | 1036.3 | 1.442 | 1.326 | 1.226 | 1.131 | 1.045
x1 = 0.8997 | 1073.7 | 1068.3 | 1065.8 | 1059 | 1054 | 1.629 | 1.492 | 1.379 | 1.269 | 1.167
x1 = 1 | 1090.7 | 1084.7 | 1082.3 | 1075.1 | 1070.1 | 1.832 | 1.67 | 1.537 | 1.408 | 1.289

CO [methanol] + C[S+](C)[O-]
x2 = 0
Settings | mass density [kg/m3] | viscosity [mPa·s]
303.15 K | 781.3 | 0.5178
308.15 K | 778.2 | 0.4843
313.15 K | 772.4 | 0.4515
318.15 K | 767.8 | 0.4233
323.15 K | 762.7 | 0.395

C[S+](C)[O-] [dimethyl sulfoxide] + CCO
Settings | mass density, 303.15 K [kg/m3] | mass density, 308.15 K [kg/m3] | mass density, 313.15 K [kg/m3] | mass density, 318.15 K [kg/m3] | mass density, 323.15 K [kg/m3] | viscosity, 303.15 K [mPa·s] | viscosity, 308.15 K [mPa·s] | viscosity, 313.15 K [mPa·s] | viscosity, 318.15 K [mPa·s] | viscosity, 323.15 K [mPa·s]
x1 = 0.1008 | 836 | 831.6 | 827.6 | 822.8 | 818.1 | 1.244 | 1.122 | 1.025 | 0.9261 | 0.8551
x1 = 0.2004 | 870.1 | 865.6 | 861.7 | 856.7 | 852.1 | 1.205 | 1.096 | 0.9964 | 0.9126 | 0.8356
x1 = 0.2994 | 902.4 | 897.7 | 894 | 888.8 | 884 | 1.209 | 1.098 | 1.01 | 0.9262 | 0.8544
x1 = 0.4005 | 933.9 | 929 | 925.6 | 920.1 | 915.3 | 1.237 | 1.143 | 1.038 | 0.961 | 0.8876
x1 = 0.4995 | 963.3 | 958.2 | 955 | 949.2 | 944.4 | 1.282 | 1.179 | 1.086 | 1.004 | 0.9264
x1 = 0.6005 | 991.6 | 986.3 | 983.4 | 977.4 | 972.4 | 1.361 | 1.248 | 1.154 | 1.065 | 0.9847
x1 = 0.7012 | 1018.4 | 1013 | 1010.3 | 1004.1 | 999.3 | 1.464 | 1.34 | 1.234 | 1.139 | 1.05
x1 = 0.8011 | 1043.6 | 1038.3 | 1035.9 | 1029.5 | 1024.7 | 1.557 | 1.435 | 1.323 | 1.217 | 1.125
x1 = 0.8999 | 1067.5 | 1062.1 | 1059.8 | 1053.1 | 1048.4 | 1.658 | 1.517 | 1.393 | 1.289 | 1.183
x1 = 1 | 1090.7 | 1084.7 | 1082.3 | 1075.1 | 1070 | 1.832 | 1.67 | 1.537 | 1.408 | 1.289
